Laboratory results as given in ChEMBL document CHEMBL1201862, “PubChem BioAssay data set” (2004).
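Cells were grown in 96-well plates and exposed to each compound for 48 hours at five concentrations; endpoints were interpolated linearly between bracketing concentrations, or set to the highest concentration if not reached. GI50 = concentration required for 50% inhibition of growth.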 Calls of active or inactive are those of the source. Rule as the data show it: active = GI50 up to about 1.1 µM and inactive = higher.

How the values were obtained:
Assay in all cases: growth of human tumour cells (NCI), 48 h
786-0 = system: 786-0
A498 = system: A498
A549 = system: A549
ACHN = system: ACHN
CAKI-1 = system: CAKI-1
CCRF-CEM = system: CCRF-CEM
COLO 205 = system: COLO 205
DLD-1 = system: DLD-1
DMS-114 = system: DMS-114
DMS-273 = system: DMS-273
EKVX = system: EKVX
HCC 2998 = system: HCC 2998
HCT-116 = system: HCT-116
HCT-15 = system: HCT-15
HL-60 = system: HL-60
HOP-18 = system: HOP-18
HOP-62 = system: HOP-62
HOP-92 = system: HOP-92
HT-29 = system: HT-29
IGROV-1 = system: IGROV-1
K562 = system: K562
KM-20L2 = system: KM-20L2
KM12 = system: KM12
LOX IMVI = system: LOX IMVI
LXFL 529 = system: LXFL 529
M14 = system: M14
M19-MEL = system: M19-MEL
MOLT-4 = system: MOLT-4
Malme-3M = system: Malme-3M
NCI-H226 = system: NCI-H226
NCI-H23 = system: NCI-H23
NCI-H460 = system: NCI-H460
NCI-H522 = system: NCI-H522
OVCAR-3 = system: OVCAR-3
OVCAR-4 = system: OVCAR-4
OVCAR-5 = system: OVCAR-5
OVCAR-8 = system: OVCAR-8
RPMI-8226 = system: RPMI-8226
RXF 393 = system: RXF 393
RXF 631 = system: RXF 631
SF-268 = system: SF-268
SF-295 = system: SF-295
SF-539 = system: SF-539
SK-MEL-28 = system: SK-MEL-28
SK-MEL-2 = system: SK-MEL-2
SK-MEL-5 = system: SK-MEL-5
SK-OV-3 = system: SK-OV-3
SN12C = system: SN12C
SNB-19 = system: SNB-19
SNB-75 = system: SNB-75
SNB-78 = system: SNB-78
SW-620 = system: SW-620
TK-10 = system: TK-10
U-251 = system: U-251
UACC-257 = system: UACC-257
UACC-62 = system: UACC-62
UO-31 = system: UO-31
SR = system: SR

O=C1[C@H]2ON(c3ccccc3)C(c3ccc([N+](=O)[O-])cc3)[C@H]2C(=O)N1c1ccc(Cc2ccc(N3C(=O)[C@@H]4ON(c5ccccc5)C(c5ccc([N+](=O)[O-])cc5)[C@@H]4C3=O)cc2)cc1 (stereo not given in full)
GI50 (786-0): > 100 µM (inactive)
GI50 (A498): > 100 µM (inactive)
GI50 (A549): > 100 µM (inactive)
GI50 (ACHN): > 100 µM (inactive)
GI50 (CAKI-1): 26.1 µM (inactive)
GI50 (CCRF-CEM): > 100 µM (inactive)
GI50 (COLO 205): 58.7 µM (inactive)
GI50 (DLD-1): > 100 µM (inactive)
GI50 (DMS-114): > 100 µM (inactive)
GI50 (DMS-273): > 100 µM (inactive)
GI50 (EKVX): > 100 µM (inactive)
GI50 (HCC 2998): > 100 µM (inactive)
GI50 (HCT-116): > 100 µM (inactive)
GI50 (HCT-15): > 100 µM
GI50 (HL-60): > 100 µM (inactive)
GI50 (HOP-18): > 100 µM (inactive)
GI50 (HOP-62): > 100 µM (inactive)
GI50 (HOP-92): 52.4 µM (inactive)
GI50 (HT-29): > 100 µM (inactive)
GI50 (IGROV-1): > 100 µM (inactive)
GI50 (K562): > 100 µM (inactive)
GI50 (KM-20L2): > 100 µM (inactive)
GI50 (KM12): > 100 µM (inactive)
GI50 (LOX IMVI): > 100 µM (inactive)
GI50 (LXFL 529): 74.6 µM (inactive)
GI50 (M14): 13.5 µM (inactive)
GI50 (M19-MEL): > 100 µM (inactive)
GI50 (MOLT-4): > 100 µM (inactive)
GI50 (Malme-3M): 58.6 µM (inactive)
GI50 (NCI-H226): > 100 µM (inactive)
GI50 (NCI-H23): > 100 µM (inactive)
GI50 (NCI-H460): > 100 µM (inactive)
GI50 (NCI-H522): > 100 µM (inactive)
GI50 (OVCAR-3): > 100 µM (inactive)
GI50 (OVCAR-4): > 100 µM (inactive)
GI50 (OVCAR-5): > 100 µM (inactive)
GI50 (OVCAR-8): > 100 µM (inactive)
GI50 (RPMI-8226): > 100 µM (inactive)
GI50 (RXF 393): > 100 µM (inactive)
GI50 (RXF 631): > 100 µM (inactive)
GI50 (SF-268): > 100 µM (inactive)
GI50 (SF-295): > 100 µM (inactive)
GI50 (SF-539): > 100 µM (inactive)
GI50 (SK-MEL-28): > 100 µM (inactive)
GI50 (SK-MEL-2): > 100 µM (inactive)
GI50 (SK-MEL-5): 40.1 µM (inactive)
GI50 (SK-OV-3): > 100 µM (inactive)
GI50 (SN12C): > 100 µM (inactive)
GI50 (SNB-19): > 100 µM (inactive)
GI50 (SNB-75): > 100 µM (inactive)
GI50 (SNB-78): > 100 µM (inactive)
GI50 (SW-620): > 100 µM (inactive)
GI50 (TK-10): > 100 µM (inactive)
GI50 (U-251): > 100 µM (inactive)
GI50 (UACC-257): 98.9 µM (inactive)
GI50 (UACC-62): 67.3 µM (inactive)
GI50 (UO-31): > 100 µM (inactive)

O=C(Nc1nnc(S)[nH]1)C(=O)C1C(=O)Nc2ccccc2[S+]1[O-] (stereo not given)
GI50 (786-0): > 100 µM (inactive)
GI50 (A549): > 100 µM (inactive)
GI50 (ACHN): > 100 µM (inactive)
GI50 (CAKI-1): > 100 µM (inactive)
GI50 (CCRF-CEM): > 100 µM (inactive)
GI50 (COLO 205): > 100 µM (inactive)
GI50 (DMS-114): > 100 µM (inactive)
GI50 (DMS-273): > 100 µM (inactive)
GI50 (EKVX): > 100 µM (inactive)
GI50 (HCC 2998): > 100 µM (inactive)
GI50 (HCT-116): > 100 µM (inactive)
GI50 (HCT-15): > 100 µM
GI50 (HL-60): > 100 µM (inactive)
GI50 (HOP-18): > 100 µM (inactive)
GI50 (HOP-62): > 100 µM (inactive)
GI50 (HOP-92): > 100 µM (inactive)
GI50 (HT-29): > 100 µM (inactive)
GI50 (IGROV-1): > 100 µM (inactive)
GI50 (KM-20L2): > 100 µM (inactive)
GI50 (KM12): > 100 µM (inactive)
GI50 (LOX IMVI): > 100 µM (inactive)
GI50 (LXFL 529): > 100 µM (inactive)
GI50 (M14): > 100 µM (inactive)
GI50 (M19-MEL): > 100 µM (inactive)
GI50 (MOLT-4): > 100 µM (inactive)
GI50 (Malme-3M): > 100 µM (inactive)
GI50 (NCI-H23): > 100 µM (inactive)
GI50 (NCI-H460): > 100 µM (inactive)
GI50 (NCI-H522): > 100 µM (inactive)
GI50 (OVCAR-3): > 100 µM (inactive)
GI50 (OVCAR-4): > 100 µM (inactive)
GI50 (OVCAR-8): > 100 µM (inactive)
GI50 (RXF 631): > 100 µM (inactive)
GI50 (SF-268): > 100 µM (inactive)
GI50 (SF-295): > 100 µM (inactive)
GI50 (SF-539): > 100 µM (inactive)
GI50 (SK-MEL-28): > 100 µM (inactive)
GI50 (SK-MEL-5): > 100 µM (inactive)
GI50 (SK-OV-3): > 100 µM (inactive)
GI50 (SN12C): > 100 µM (inactive)
GI50 (SNB-19): > 100 µM (inactive)
GI50 (SNB-75): > 100 µM (inactive)
GI50 (SR): > 100 µM (inactive)
GI50 (SW-620): > 100 µM (inactive)
GI50 (TK-10): > 100 µM (inactive)
GI50 (UACC-257): > 100 µM (inactive)
GI50 (UACC-62): > 100 µM (inactive)
GI50 (UO-31): > 100 µM (inactive)
